The NIST ThermoML archive (doi:10.1016/j.tca.2014.10.015)
Several values for one entry are separate records, joined by “and”; a condition that tells them apart may be missing. Equal values may be shown once.

Conditions: Liquid; for vapor or sublimation pressure: Transpiration method; for mass density: 293 K, 101.33 kPa, Pycnometric method

CCCCCCCCN=[N+]=[N-] [1-azidooctane]
Conditions	mass density [kg/m3]	vapor or sublimation pressure
–	840	–
276.2 K	–	0.00625 kPa
279.8 K	–	0.00904 kPa
282.5 K	–	0.01172 kPa
285.8 K	–	0.01548 kPa
289.4 K	–	0.02119 kPa
292.2 K	–	0.02751 kPa
293.2 K	–	0.02911 kPa
296.2 K	–	0.03707 kPa
300.2 K	–	0.04808 kPa
302.1 K	–	0.05805 kPa
303.1 K	–	0.06504 kPa
307 K	–	0.08345 kPa
310 K	–	0.1089 kPa
313.9 K	–	0.1355 kPa
317.9 K	–	0.188 kPa
320.9 K	–	0.2406 kPa
321.8 K	–	0.2385 kPa
323.9 K	–	0.2592 kPa and 0.2683 kPa
325.8 K	–	0.3237 kPa and 0.3236 kPa and 0.3135 kPa

CCCCCCCCCCN=[N+]=[N-] [1-decyl azide]
Conditions	mass density [kg/m3]	vapor or sublimation pressure [kPa]
–	870	–
299.1 K	–	0.00431
304 K	–	0.00666
309 K	–	0.01017
314 K	–	0.01489
318.9 K	–	0.02152
324 K	–	0.03305
329 K	–	0.04744
333.9 K	–	0.06769
339 K	–	0.0914
344.1 K	–	0.1347
